In data set [1] the test system is mouse Sca1-positive stem cells. The experiment in a line: Adenoviral transduction of mouse Sca1+ve stem cells. Type of data set: cell-based. As to the method:
Mouse bone marrow cells were isolated as above and Sca1+ve cells were isolated using MACs Sca1 microbeads (Miltenyi Biotec, Bisley, U.K.). These cells were plated at 7×10^4 cells/500 μl in RPMI with Glutamax-1 containing 30% FCS and penicillin/streptomycin and the following cytokines murine SCF (50 ng/ml; Preprotech, London, UK), IL-6 (20 ng/ml; Preprotech, London, UK) and Flt3-L (10 ng/ml) (R&D Systems, Oxford, U. K.).
(§1) Day 6 dendritic cells (see Example 1(v) above), or mouse bone marrow derived dendritic cells or mouse Sca1+ve stem cells, see (i) and (ii) above, were plated at 5×10^4 cells per well in a 48 well plate in 500 μl complete medium and allowed to settle for 3 hours at 37° C. Transductions were carried out in complete media, with virus being added at 100,000 viral particles/cell for 24 hours. Cells were harvested by scraping, spun down at 650 g (2000 rpm) for 5 min, resuspended in 300 μl PBS, and kept on ice before analysis. Viral transduction as determined by percentage of GFP positive cells was measured by FACS analysis. […] Cells were then washed twice in PBS, trypsinised, triplicate wells pooled, spun down at 350×g for 5 min and resuspended in 300 μl PBS before analysis by flow cytometry where cell viability was to be measured, 10 μl 7AAD was added just prior to analysis.

The test system of data set [2] is human monocyte-derived primary macrophages. The experiment in a line: Adenoviral transduction of primary macrophages. Conditions: 10,000 viral particles/cell in 2.5% serum. Type of data set: cell-based. The protocol:
(§2) Day 6 dendritic cells (see Example 1(v) above), or mouse bone marrow derived dendritic cells or mouse Sca1+ve stem cells, see (i) and (ii) above, were plated at 5×10^4 cells per well in a 48 well plate in 500 μl complete medium and allowed to settle for 3 hours at 37° C. Transductions were carried out in complete media, with virus being added at 100,000 viral particles/cell for 24 hours. Cells were harvested by scraping, spun down at 650 g (2000 rpm) for 5 min, resuspended in 300 μl PBS, and kept on ice before analysis. Viral transduction as determined by percentage of GFP positive cells was measured by FACS analysis. To measure percentage viability, 10 μl of 7-amino-actinomycin D (7AAD; Sigma, Poole, Dorset) was added immediately prior to analysis. Viral transduction of macrophages was carried out at 10,000 particles/cell in medium containing 2.5% FCS. For other cell types, cells were seeded overnight at 5×10^4 cells per well in 24-well plates in the appropriate media. Adenovirus was added in OptiMEM at 10,000 viral particles/cell, 1 ml per well in triplicate and incubated for 24 h at 37° C. Cells were then washed twice in PBS, trypsinised, triplicate wells pooled, spun down at 350×g for 5 min and resuspended in 300 μl PBS before analysis by flow cytometry where cell viability was to be measured, 10 μl 7AAD was added just prior to analysis.
10 mls of peripheral blood were diluted 1:1 with HBSS then layered on Lymphoprep (Nycomed), spun at 750 g for 30 min and purified […] were isolated from the interface. Excess Lymphoprep was removed by spinning cells down at 250 g for 10 min and any platelets present were removed by washing in HBSS twice, spinning the cells at 1200 rpm for 10 min each time. Monocytes were then isolated using MACs CD14 microbeads as described in the manufacturer's protocol. The mononuclear cells were plated into a […] flask in 10% FCS, RPMI for 1-2 hours (1 flask per 10 ml blood) before removing the supernatant and adding fresh 10% FCS, RPMI+10 ng/ml MCSF (macrophage colony stimulating factor). Half the medium was replaced with fresh 10% FCS, RPMI+MCSF (10 ng/ml) after 48 hours and the cells were used at day 6, harvesting by scraping the cells from the well.
Viral transduction was carried out at 10,000 particles/cell in medium containing 2.5% FCS. Viral transduction as determined by percentage of GFP positive cells was measured by FACS analysis. Cells were pooled from three separate transduction experiments for the calculation of results.

The subject of data set [3] is HepG2 cells. The data set is described as follows: Adenoviral transduction of HepG2 cells. Type of data set: cell-based, human. The conditions noted are these: 10,000 particles per cell in OptiMEM. As to the method:
(§3) Day 6 dendritic cells (see Example 1(v) above), or mouse bone marrow derived dendritic cells or mouse Sca1+ve stem cells, see (i) and (ii) above, were plated at 5×10^4 cells per well in a 48 well plate in 500 μl complete medium and allowed to settle for 3 hours at 37° C. Transductions were carried out in complete media, with virus being added at 100,000 viral particles/cell for 24 hours. Cells were harvested by scraping, spun down at 650 g (2000 rpm) for 5 min, resuspended in 300 μl PBS, and kept on ice before analysis. Viral transduction as determined by percentage of GFP positive cells was measured by FACS analysis. To measure percentage viability, 10 μl of 7-amino-actinomycin D (7AAD; Sigma, Poole, Dorset) was added immediately prior to analysis. Viral transduction of macrophages was carried out at 10,000 particles/cell in medium containing 2.5% FCS. […] Cells were then washed twice in PBS, trypsinised, triplicate wells pooled, spun down at 350×g for 5 min and resuspended in 300 μl PBS before analysis by flow cytometry where cell viability was to be measured, 10 μl 7AAD was added just prior to analysis.
(§4) For transduction of these other cell types, cells were seeded overnight at 5×10^4 cells per well in 24 well plates in the appropriate media. […] Where cell viability was to be measured, 10 μl 7-amino-actinomycin D (7AAD; Sigma, Poole, Dorset) was added just prior to analysis. […]

Data set [4] has as its system HMEC-1 cells. The experiment in a line: Adenoviral transduction of HMEC-1 cells. In kind it is cell-based, human. Conditions: 10,000 particles per cell in OptiMEM. The protocol: as §3, §4
Data set [5] concerns primary mouse dendritic cells. The experiment in a line: Adenoviral transduction of mouse dendritic cells. In kind it is cell-based. Conditions: bone marrow derived DCs. As to the method:
Mouse dendritic cells were prepared from whole bone marrow flushed from the marrow cavities of the femur and tibia of 5-7 week old A/J mice and cultured in Hepes buffered RPMI+Glutamax (InVitrogen, Paisley, U. K.) supplemented with 10% FCS, penicillin/streptomycin and 20 ng/ml recombinant GM-CSF. Cytokines were added to the same concentration on day 3 and the dendritic cells isolated from the floating cell fraction by MACs CD11c microbeads (Miltenyi Biotec, Bisley, U. K.) on day 6.
as §1

Data set [6] has as its system Neuro-2A cells. The experiment in a line: Adenoviral transduction of Neuro-2A cells. In kind it is cell-based, mouse. The conditions noted are these: 10,000 particles per cell in OptiMEM. The protocol: as §3, §4
In data set [7] the test system is 1HAEo- cells. The experiment in a line: Adenoviral transduction of 1HAEo- cells. In kind it is cell-based, human. Conditions: 10,000 particles per cell in OptiMEM. The protocol:
as §3, §4

Data set [8] concerns day 6 immature dendritic cells. The data set is described as follows: Maturation of adenovirus-transduced dendritic cells in response to LPS (marker flow cytometry). Type of data set: cell-based, human. The conditions noted are these: LPS 50 ng/ml; virus 100,000 particles per cell. As to the method: Day 6 immature dendritic cells were infected with retargeted Ad or Ad5 at 100,000 particles per cell in complete medium for 24 hours, with E. coli 026:B6 lipopolysaccharide (LPS) added following 3 hours incubation at a concentration of 50 ng/ml. As controls, dendritic cells were either incubated in complete medium for 24 hours or matured by the addition of LPS in complete medium for 24 hours, In all samples IL-4 and GM-CSF were present in the complete medium at 25 ng/ml and 100 ng/ml respectively. Cells were then phenotyped by staining as follows: a minimum of 5×10^4 cells in a volume of less than 2 ml medium were added to the recommended amount of antibody and incubated for 20 min on ice. 2 ml of ice-cold PBS was added before centrifugation at 300×g for 5 min at 4° C. The supernatant was flicked off and the pellet resuspended in 300 μl ice cold PBS. Cells from each sample were stained with antibodies to HLA-DR, CD40, CD80, CD83, CD86 and isotype matched control antibodies. Where cell viability was also measured, […] of 7AAD was added immediately prior to analysis. Cells were analysed by flow cytometry using a Epics XL (Beckman Coulter, High Wycombe, UK.) and the EXPO32 analysis software (Beckman Coulter).

In data set [9] the test system is human monocyte-derived immature dendritic cells. In kind it is cell-based. Conditions: 100,000 viral particles/cell.
Text: Ad5 particles with the DC-binding peptides incorporated into the HI loop of the fibre protein were produced essentially as described previously ^12. Complementary oligonucleotides encoding the peptide sequences SHVKLNS [SEQ. ID. NO.:29] (5′ CC GGAAGCCACGTGAAGCTGAACAGCG 3′ [SEQ. ID. NO.:58] and 5′ CC GGCGCTGTTCAGCTTCACGTG GCTT 3′[SEQ. ID. NO.:59]) or APSNSTA [SEQ. ID. NO.:15] (5′ CC GGAGCCCCCAGCAACAGCACCGCCG 3′ [SEQ. ID. NO.:61] and 5′ CC GGCGGCGGTGCTGTTGCTGGG GGCT 3′ [SEQ. ID. NO.:62]) were synthesized (Operon Technologies, Alameda Calif. U.S.A.). The oligo pairs were then kinased, annealed, and ligated into the unique BspE1 site of pDV137 ^12, an expression construct encoding an Ad5 fibre protein with a double point mutant (KO1) which blocks CAR binding and a linker/restriction site in the HI loop, to create pDV178 (SHVKLNS) and pDV179 (APSNSTA). Following sequence confirmation, the plasmids were used to trans-complement the fibre-deleted vector Ad5.GFP.δF^18 by transient transfection into 293 cells as described ^19. Viral particles were purified by freeze/thaw lysis and CsCl gradient centrifugation and dialyzed into 40 mM TRIS-pH 8.1/0.9% NaCl/10% glycerol and stored at −80° C. Virus was quantified by protein assay (BioRad, Hercules Calif., U.S.A.) against BSA standards and using the relation 1 μg viral protein=4×10^9 viral particles.
Retargeted adenoviruses carrying a peptide A or B were used for the transduction experiments described below. Wild type adenovirus type 5 and type 5 adenovirus having a KO1 fibre, all supplied by Dr Dan von Seggern, and as described in Nicklin 2001 Mol Ther 2001 Dec.; 4(6):534-42), were used as controls.
as §2
Cells were pooled from three separate transduction experiments for the calculation of results.

Consider “APSNSTA (Synthetic peptide binding to dendritic cells)”, for which the Transduction efficiency stood at 5.4% in [1] and 54.1% in data set [5]. In addition, the “Transduction, % cells transduced” value in data set [2] is reported as 34.6%; in data set [2] (listed as B), 34.6%; in data set [3], 79.7%; in [4], 94.2%; in data set [7], 79%. The “Transduction, % GFP-positive cells” value in [6] is recorded as 53.7%. For the same substance, the CD40 positive cells in data set [8] turned out to be 9.8%. In [8], this substance returned a CD80 positive cells of 10.7%. This substance returned a CD83 positive cells in [8] of 18.0%. In addition, the CD86 positive cells in [8] was found to be 96.7%. In addition, the HLA-DR positive cells in [8] came to 72.9%. Further, the “Transduction (% GFP positive cells), donor A” value in data set [9] (complete medium, 24 hours, donor A) stood at 65.1%. Further, the “Transduction (% GFP positive cells), donor B” value in [9] (complete medium, 24 hours, donor B) came to 78.9%. For the same substance, the “Percentage cell death, donor A” value in data set [9] (donor A, 7AAD) is reported as “(6.6) %”. In data set [9] (donor B, 7AAD), the “Percentage cell death, donor B” value is “(11.6) %”.

Source of the values: patent US7820624B2, “Peptide ligands” (ICH Productions Limited, priority 2003, dated 2010).
